Laboratory results: publication PMC7377239, “Cardiovascular Effects of Polychlorinated Biphenyls and Their Major Metabolites” (Environmental Health Perspectives, 2020)
Read-outs that look alike come from different tables or passages of the source.

System: iCell cardiomyocytes (human iPSC-derived cardiomyocytes)
Assay: Intracellular Ca2+ flux / beating parameters in iCell cardiomyocytes (FLIPR tetra), 90 min or 24 h
Format: cell-based
Conditions: Homo sapiens, Cardiomyocyte, 0.00 µM = 100.00; for activity at 0.1 µM: 0.10 µM
How it was run: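 PODs were defined as the concentration crossing one SD of the vehicle-control means (0.5% DMSO) on four-parameter logistic fits of Ca2+ trace metrics (peak height, frequency, peak-spacing CV, decay/rise ratio). Traces came from 100 s, 8 Hz FLIPR reads at 37 °C on calcium-dye-loaded iCell cardiomyocytes. Before reading, cells were treated for 90 min or 24 h from 5× chemical plates spanning 0.05–500 µM, in triplicate.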

[1] = 1.5 h, 90min, read-out: cm.amp.avg.90min
[2] = 1.5 h, 90min, read-out: cm.amp.cv.90min
[3] = 1.5 h, 90min, read-out: cm.bpm.90min
[4] = 1.5 h, 90min, read-out: cm.decay.rise.90min
[5] = 1.5 h, 90min, read-out: cm.spacing.cv.90min
[6] = 24 h, 24hrs, read-out: cm.amp.avg.24hrs
[7] = 24 h, 24hrs, read-out: cm.amp.cv.24hrs
[8] = 24 h, 24hrs, read-out: cm.bpm.24hrs
[9] = 24 h, 24hrs, read-out: cm.decay.rise.24hrs
[10] = 24 h, 24hrs, read-out: cm.spacing.cv.24hrs

Question: Which activity at 0.01 µM [1] does the source give for `Clc1ccc(Cl)c(-c2c(Cl)ccc(Cl)c2Cl)c1` [PCB95] here?
Answer: Its activity at 0.01 µM is 91.5%.

Question: And the activity at 0.01 µM [2]?
Answer: Its activity at 0.01 µM is 105%.

Question: And the activity at 0.01 µM [3]?
Answer: Its activity at 0.01 µM is 99.1%.

Question: And the activity at 0.01 µM [4]?
Answer: Its activity at 0.01 µM is 101%.

Question: What about the activity at 0.01 µM [5] of the same molecule?
Answer: Its activity at 0.01 µM is 118%.

Question: What about the activity at 0.1 µM [1] of the same molecule?
Answer: The activity at 0.1 µM was 99.9%.

Question: And the activity at 0.1 µM [2]?
Answer: Its activity at 0.1 µM is 86.3%.

Question: What about the activity at 0.1 µM [3] of the same molecule?
Answer: Its activity at 0.1 µM is 96.5%.

Question: And the activity at 0.1 µM [4]?
Answer: The activity at 0.1 µM was 103%.

Question: And the activity at 0.1 µM [5]?
Answer: The activity at 0.1 µM was 104%.

Question: And the activity at 1 µM [1]?
Answer: The activity at 1 µM was 84.6%.

Question: And the activity at 1 µM [2]?
Answer: Its activity at 1 µM is 116%.

Question: What about the activity at 1 µM [3] of the same molecule?
Answer: The activity at 1 µM was 85.3%.

Question: What about the activity at 1 µM [4] of the same molecule?
Answer: Its activity at 1 µM is 109%.

Question: What about the activity at 1 µM [5] of the same molecule?
Answer: Its activity at 1 µM is 92%.

Question: What about the activity at 10 µM [1] of the same molecule?
Answer: Its activity at 10 µM is 101%.

Question: What about the activity at 10 µM [2] of the same molecule?
Answer: The activity at 10 µM was 120%.

Question: And the activity at 10 µM [3]?
Answer: The activity at 10 µM was 86.5%.

Question: And the activity at 10 µM [4]?
Answer: Its activity at 10 µM is 120%.

Question: And the activity at 10 µM [5]?
Answer: The activity at 10 µM was 120%.

Question: What about the activity at 100 µM [1] of the same molecule?
Answer: The activity at 100 µM was 9.49%.

Question: What about the activity at 100 µM [2] of the same molecule?
Answer: The activity at 100 µM was 441%.

Question: And the activity at 100 µM [3]?
Answer: Its activity at 100 µM is 0%.

Question: And the activity at 100 µM [4]?
Answer: Its activity at 100 µM is 36.2%.

Question: And the activity at 100 µM [5]?
Answer: Its activity at 100 µM is 78.1%.

Question: What about the activity at 0.01 µM [6] of the same molecule?
Answer: The activity at 0.01 µM was 115%.

Question: What about the activity at 0.01 µM [7] of the same molecule?
Answer: The activity at 0.01 µM was 139%.

Question: What about the activity at 0.01 µM [8] of the same molecule?
Answer: Its activity at 0.01 µM is 110%.

Question: What about the activity at 0.01 µM [9] of the same molecule?
Answer: The activity at 0.01 µM was 92.5%.

Question: What about the activity at 0.01 µM [10] of the same molecule?
Answer: The activity at 0.01 µM was 142%.

Question: What about the activity at 0.1 µM [6] of the same molecule?
Answer: The activity at 0.1 µM was 181%.

Question: And the activity at 0.1 µM [7]?
Answer: Its activity at 0.1 µM is 73.7%.

Question: What about the activity at 0.1 µM [8] of the same molecule?
Answer: Its activity at 0.1 µM is 113%.

Question: And the activity at 0.1 µM [9]?
Answer: Its activity at 0.1 µM is 99.1%.

Question: And the activity at 0.1 µM [10]?
Answer: Its activity at 0.1 µM is 137%.

Question: What about the activity at 1 µM [6] of the same molecule?
Answer: Its activity at 1 µM is 76.5%.

Question: And the activity at 1 µM [7]?
Answer: Its activity at 1 µM is 36.8%.

Question: What about the activity at 1 µM [8] of the same molecule?
Answer: Its activity at 1 µM is 43.9%.

Question: What about the activity at 1 µM [9] of the same molecule?
Answer: Its activity at 1 µM is 54.1%.

Question: What about the activity at 1 µM [10] of the same molecule?
Answer: Its activity at 1 µM is 61.3%.

Question: And the activity at 10 µM [6]?
Answer: Its activity at 10 µM is 144%.

Question: And the activity at 10 µM [7]?
Answer: Its activity at 10 µM is 77.4%.

Question: And the activity at 10 µM [8]?
Answer: The activity at 10 µM was 79.2%.

Question: What about the activity at 10 µM [9] of the same molecule?
Answer: The activity at 10 µM was 109%.

Question: And the activity at 10 µM [10]?
Answer: The activity at 10 µM was 127%.

Question: And the activity at 100 µM [6]?
Answer: The activity at 100 µM was 0%.

Question: And the activity at 100 µM [7]?
Answer: Its activity at 100 µM is 0%.

Question: What about the activity at 100 µM [8] of the same molecule?
Answer: Its activity at 100 µM is 0%.

Question: And the activity at 100 µM [9]?
Answer: Its activity at 100 µM is 0%.

Question: What about the activity at 100 µM [10] of the same molecule?
Answer: The activity at 100 µM was 0%.

Question: Which results are given for `Clc1ccc(-c2cc(Cl)c(Cl)c(Cl)c2)cc1Cl` [PCB126]?
Answer: activity at 0.01 µM [1]: 100%; activity at 0.01 µM [2]: 110%; activity at 0.01 µM [3]: 107%; activity at 0.01 µM [4]: 102%; activity at 0.01 µM [5]: 135%; activity at 0.1 µM [1]: 102%; activity at 0.1 µM [2]: 139%; activity at 0.1 µM [3]: 97.8%; activity at 0.1 µM [4]: 99.8%; activity at 0.1 µM [5]: 119%; activity at 1 µM [1]: 102%; activity at 1 µM [2]: 114%; activity at 1 µM [3]: 105%; activity at 1 µM [4]: 96%; activity at 1 µM [5]: 115%; activity at 10 µM [1]: 90.3%; activity at 10 µM [2]: 363%; activity at 10 µM [3]: 128%; activity at 10 µM [4]: 83%; activity at 100 µM [1]: 117%; activity at 100 µM [2]: 120%; activity at 100 µM [3]: 135%; activity at 100 µM [4]: 86.2%; activity at 100 µM [5]: 106%; activity at 0.01 µM [6]: 73.3%; activity at 0.01 µM [7]: 143%; activity at 0.01 µM [8]: 100%; activity at 0.01 µM [9]: 101%; activity at 0.01 µM [10]: 122%; activity at 0.1 µM [6]: 79.8%; activity at 0.1 µM [7]: 120%; activity at 0.1 µM [8]: 100%; activity at 0.1 µM [9]: 109%; activity at 0.1 µM [10]: 117%; activity at 1 µM [6]: 72.2%; activity at 1 µM [7]: 128%; activity at 1 µM [8]: 104%; activity at 1 µM [9]: 97.6%; activity at 1 µM [10]: 113%; activity at 10 µM [6]: 78.8%; activity at 10 µM [7]: 38.8%; activity at 10 µM [8]: 68.7%; activity at 10 µM [9]: 50%; activity at 10 µM [10]: 66.1%; activity at 100 µM [6]: 20.9%; activity at 100 µM [7]: 121%; activity at 100 µM [8]: 70.6%; activity at 100 µM [9]: 29.1%; activity at 100 µM [10]: 81%
